Here are results for eleven molecules from patent US20080114007A1 (priority 2006, published 2008).

Usually IC50 stands for the concentration needed to halve the response being measured.

Experiment [1] concerns the target c-fms (Homo sapiens, UniProt P07333). The experiment in a line: Autophosphorylation, fluorescence polarization competition immunoassay. It counts as biochemical. As to conditions: 10 nM c-fms, 1 mM ATP, 5 mM MgCl2, 45 min; averages of three independent measurements. The procedure:
The assay buffer used was 100 mM 4-(2-hydroxyethyl)piperazine 1-ethanesulfonic acid (HEPES), pH 7.5, 1 mM 1,4-dithio-DL-threitol (DTT), 0.01% (v/v) Tween-20. Compounds were diluted in assay buffer containing 4% dimethylsulfoxide (DMSO) just prior to the assay. […] The kinase reaction was initiated by adding 2 μL of 5 mM ATP (Sigma) in assay buffer. The final concentrations in the assay were 10 nM c-fms, 1 mM ATP, 5 mM MgCl2, 2% DMSO. Control reactions were ran in each plate: in positive and negative control wells, assay buffer (made 4% in DMSO) was substituted for the compound; in addition, positive control wells received 1.2 μL of 50 mM ethylenediaminetetraacetic acid (EDTA).
At the end of the incubation, the reaction was quenched with 1.2 μL of 50 mM EDTA (EDTA was not added to the positive control wells at this point; see above). Following a 5-min incubation, each well received 10 μL of a 1:1:3 mixture of anti-phosphotyrosine antibody, 10×, PTK green tracer, 10× (vortexed), FP dilution buffer, respectively (all from PanVera, cat. # P2837). The plate was covered, incubated for 30 min at room temperature and the fluorescence polarization was read on the Analyst.
The IC50 values shown in Table 1 are averages of three independent measurements.
A general note: Fluorescence polarisation rises when a labelled molecule tumbles more slowly, as on binding a larger partner.

Experiment [2] addresses CSF-1R (Homo sapiens, UniProt P07333). The experiment can be described thus: Peptide (non-phosphorylated) assay, fluorescence polarization competition immunoassay. The format is biochemical. As to conditions: 0.7 nM CSF-1R, 308 μM SYEGNSYTFIDPTQ peptide, 1 mM ATP, 80 min; mean of at least three determinations; read-out: c-fms Peptide IC50. In outline: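 Read-out is fluorescence polarization: after EDTA quench, anti-phosphotyrosine antibody plus PTK green tracer compete with the phosphorylated peptide for 30 min. The CSF-1R reaction itself ran 80 min at room temperature after ATP addition. DMSO (4%) wells served as controls, positive controls pre-treated with EDTA.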

Sequence of CSF-1R (P07333 20-972): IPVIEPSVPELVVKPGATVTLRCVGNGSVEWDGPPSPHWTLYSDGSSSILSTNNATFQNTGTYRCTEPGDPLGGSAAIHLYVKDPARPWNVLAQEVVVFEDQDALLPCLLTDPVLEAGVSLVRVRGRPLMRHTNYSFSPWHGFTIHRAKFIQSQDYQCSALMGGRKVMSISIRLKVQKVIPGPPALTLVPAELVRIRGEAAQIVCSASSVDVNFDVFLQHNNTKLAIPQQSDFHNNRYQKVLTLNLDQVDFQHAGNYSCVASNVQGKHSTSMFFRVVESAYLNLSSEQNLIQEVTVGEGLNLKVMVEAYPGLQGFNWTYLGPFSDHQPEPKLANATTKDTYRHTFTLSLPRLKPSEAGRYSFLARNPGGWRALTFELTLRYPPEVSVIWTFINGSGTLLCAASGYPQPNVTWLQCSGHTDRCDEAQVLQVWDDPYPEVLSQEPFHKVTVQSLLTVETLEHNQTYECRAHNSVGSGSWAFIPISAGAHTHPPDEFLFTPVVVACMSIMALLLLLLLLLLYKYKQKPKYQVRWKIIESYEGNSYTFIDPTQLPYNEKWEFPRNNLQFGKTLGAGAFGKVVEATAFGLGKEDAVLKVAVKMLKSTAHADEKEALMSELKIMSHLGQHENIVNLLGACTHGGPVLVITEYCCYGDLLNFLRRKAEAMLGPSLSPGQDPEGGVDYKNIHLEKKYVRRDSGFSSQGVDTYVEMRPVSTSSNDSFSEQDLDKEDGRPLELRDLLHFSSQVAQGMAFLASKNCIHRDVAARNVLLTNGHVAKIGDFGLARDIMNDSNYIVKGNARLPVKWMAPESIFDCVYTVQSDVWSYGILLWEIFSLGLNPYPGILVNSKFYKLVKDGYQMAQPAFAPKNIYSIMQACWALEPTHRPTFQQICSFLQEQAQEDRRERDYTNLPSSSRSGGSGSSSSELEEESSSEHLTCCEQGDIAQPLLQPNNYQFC
Sequence of c-fms (P07333 20-972): as above

`CNC(=O)c1cn(-c2ccc3c(c2)CCC3)c2nc(Nc3cccc(C(=O)N4CCCCC4)c3)ncc2c1=O` [Cpd 113, 8-indan-5-yl-5-oxo-2-[3-(piperidine-1-carbonyl)-phenylamino]-5,8-dihydro-pyrido[2,3-d]pyrimidine-6-carboxylic acid methylamide] gave an IC50 in experiment [1] greater than 1000 nM.

The molecule `NC(=O)c1cn(-c2ccc3c(c2)CCC3)c2nc(Nc3ccc(CN4CCCCC4)cc3)ncc2c1=O` [Cpd 119, 8-indan-5-yl-5-oxo-2-(4-piperidin-1-ylmethyl-phenylamino)-5,8-dihydro-pyrido[2,3-d]pyrimidine-6-carboxylic acid amide] came in with an IC50 in experiment [1] of 2.6 nM.

With `CCc1ccc(-n2cc(C(=O)NOC)c(=O)c3cnc(Nc4ccc(OC5CCN(CC(F)(F)F)CC5)cc4)nc32)cc1` [Cpd 318, 8-(4-ethyl-phenyl)-5-oxo-2-{4-[1-(2,2,2-trifluoro-ethyl)-piperidin-4-yloxy]-phenylamino}-5,8-dihydro-pyrido[2,3-d]pyrimidine-6-carboxylic acid methoxy-amide], the IC50 in experiment [2] came out at 5.3 nM.

In the case of `CCc1ccc(-n2cc(C(=O)NOC)c(=O)c3cnc(Nc4cccc(N(C)C)c4)nc32)cc1` [Cpd 319, 2-(3-dimethylamino-phenylamino)-8-(4-ethyl-phenyl)-5-oxo-5,8-dihydro-pyrido[2,3-d]pyrimidine-6-carboxylic acid methoxy-amide], the IC50 in experiment [2] came to 1.7 nM.

As for `CCc1ccc(-n2cc(C(=O)NOC)c(=O)c3cnc(Nc4cccc(N5CCOCC5)c4)nc32)cc1` [Cpd 320, 8-(4-ethyl-phenyl)-2-(3-morpholin-4-yl-phenylamino)-5-oxo-5,8-dihydro-pyrido[2,3-d]pyrimidine-6-carboxylic acid methoxy-amide], the IC50 in experiment [2] amounted to 0.5 nM.

`CCc1ccc(-n2cc(C(=O)NOC)c(=O)c3cnc(Nc4cccc(N5CCN(C)CC5)c4)nc32)cc1` [Cpd 321, 8-(4-ethyl-phenyl)-2-[3-(4-methyl-piperazin-1-yl)-phenylamino]-5-oxo-5,8-dihydro-pyrido[2,3-d]pyrimidine-6-carboxylic acid methoxy-amide]: the IC50 in experiment [2] was 0.5 nM.

With `CCc1ccc(-n2cc(C(=O)NOC)c(=O)c3cnc(Nc4cccc(OC5CCN(CC)CC5)c4)nc32)cc1` [Cpd 322, 8-(4-ethyl-phenyl)-2-[3-(1-ethyl-piperidin-4-yloxy)-phenylamino]-5-oxo-5,8-dihydro-pyrido[2,3-d]pyrimidine-6-carboxylic acid methoxy-amide], the IC50 in experiment [2] was 0.8 nM.

For `CCc1ccc(-n2cc(C(=O)NOC)c(=O)c3cnc(Nc4ccc(OCCCOC)c(OCCCOC)c4)nc32)cc1` [Cpd 323, 2-[3,4-bis-(3-methoxy-propoxy)-phenylamino]-8-(4-ethyl-phenyl)-5-oxo-5,8-dihydro-pyrido[2,3-d]pyrimidine-6-carboxylic acid methoxy-amide], the IC50 in experiment [2] is 1 nM.

Consider `CONC(=O)c1cn(-c2ccc3c(c2)CCC3)c2nc(Nc3cccc(N4CCN(C)CC4)c3)ncc2c1=O` [Cpd 324, 8-indan-5-yl-2-[3-(4-methyl-piperazin-1-yl)-phenylamino]-5-oxo-5,8-dihydro-pyrido[2,3-d]pyrimidine-6-carboxylic acid methoxy-amide], for which the IC50 in experiment [2] was found to be 0.5 nM.

Take `CONC(=O)c1cn(-c2ccc3c(c2)CCC3)c2nc(Nc3cccc(N4CCOCC4)c3)ncc2c1=O` [Cpd 325, 8-indan-5-yl-2-(3-morpholin-4-yl-phenylamino)-5-oxo-5,8-dihydro-pyrido[2,3-d]pyrimidine-6-carboxylic acid methoxy-amide]: in experiment [2], the IC50 was determined as 0.5 nM.

`CONC(=O)c1cn(-c2ccc3c(c2)CCC3)c2nc(Nc3cccc(N(C)C)c3)ncc2c1=O` [Cpd 326, 2-(3-dimethylamino-phenylamino)-8-indan-5-yl-5-oxo-5,8-dihydro-pyrido[2,3-d]pyrimidine-6-carboxylic acid methoxy-amide]: in experiment [2], the IC50 worked out at 1.1 nM.
